Test results published in patent US20240294478A1, “ANTI-CANCER COMPOUNDS AND METHODS OF USE” (YALE UNIVERSITY, priority 2021, published 2024).

Experiments:
[1] = test system: LN229 MGMT−/MMR+ flank tumors; assay: Murine flank tumor model, LN229 MGMT-/MMR+; format: in vivo, mouse; settings: 5 mg/kg MWF x 3 weeks, P.O.
Description: FIGS. 9A-91: KL-50 is safe and efficacious on both MGMT−/MMR+ and MGMT−/MMR-flank tumors over a wide range of treatment regimens and conditions. […] (FIG. 9C) Mean body weight of mice during LN229 flank tumor experiments. (FIG. 9D) Kaplan-Meier analysis of LN229 MGMT−/MMR− xenograft flank tumor-bearing mice to determine survival rate based on death, removal from study if mouse body weight loss exceeded 20% of initial body weight, or if tumor volume exceeded 2000 mm^3. […] (FIGS. 9H-91) Xenograft LN229 MGMT−/MMR+ and LN229 MGMT−/MSH6—flank tumors with a larger average starting tumor size of −400 mm^3 and −350 mm^3 respectively, treated with 3 weekly cycles of P.O administration of 10% cyclodextrin (n=4) or KL-50 (n=4, 3 cycles of 25 mg/kg on Monday, Wednesday, and Friday). The study period was limited by control groups which had to be euthanized for exceeding the ethical maximum allowed tumor size, thus ending the study. In all panels, points, mean; error bars, SEM; *, P<0.05; **, P<0.01; ***, P<0.001; ****, P<0.0001; ns, not significant.
Mouse Protocols for Flank Studies. A mouse tumor model was established by subcutaneously implanting human LN229 (MGMT−/MMR+) or LN229 (MGMT−/MMR−) cells. […] During the final centrifugation, viability was determined using trypan blue exclusion. […]

LN229 MGMT− shMSH6 cells = assay: Short-term viability assay, LN229 MGMT- shMSH6; format: cell-based, human; settings: for IC50: Homo sapiens, LN-229, Table III, read-out: IC50 against LN229 cell lines, MGMT− MMR−; for MGMT− RI: Table III
Description: (§1) The activity of KL-50 in MGMT-LN229 cells engineered to lack expression of other key MMR proteins including MSH6, MLH1, PMS2, and MSH3 was also confirmed. Western blotting was performed in LN229 MGMT+/−cells with stable expression of shRNA targeting MSH6, MLH1, PMS2, or MSH3 to confirm depletion of the shRNA targets. In shMSH6 cells, there was reduced expression of MSH2, and in shMLH1 cells, there was loss of PMS2, due to destabilization in the setting of loss of their heterodimeric partners. GAPDH serves as loading control. […] Short-term viability assay curves for KL-50 in LN229 MGMT+/−, MMR+/shMSH6 cells. […] Short-term viability assay curves for KL-50 in LN229 MGMT+/−, MMR+/shMLH1 cells. […] Short-term viability assay curves for KL-50 in LN229 MGMT+/−, MMR+/shPMS2 cells. […] Short-term viability assay curves for KL-50 in LN229 MGMT+/−, MMR+/shMSH3 cells.
MMR Protein shRNA Knockdown. pGIPZ lentiviral shRNA vectors targeting MSH2, MSH6, MLH1, PMS2, and MSH3 were purchased from Horizon Discovery (Table IV). Lentiviral particles were produced in HEK293T cells via co-transfection with lentiviral shRNA plasmid, pCMV-VSV-G envelope plasmid (Addgene, #8454) and psPAX2 packaging plasmid (Addgene, #12260), using Lipofectamine 3000 Reagent (Invitrogen, L3000001) per manufacturer's protocol. Viral particles were harvested 48 h post-transfection and used to transduce LN229 MGMT+/−cells in the presence of 8 μg/mL polybrene. Selection of pooled cells with lentiviral expression was established with 1 μg/mL puromycin 48 h post-transduction for 3 to 4 days. Single cell cloning was performed by limiting dilution and protein knockdown was confirmed by western blotting.
Short-term Cell Viability Assay. Cells were seeded in 96-well plates at 1000 or 2000 cells/well and allowed to adhere at 23° C. for 60 min and then incubated overnight at 37° C. Cells were treated with indicated concentrations of compounds in triplicate for 4-6 days prior to fixation with 3.7% paraformaldehyde and nuclear staining with 1 μg/mL Hoechst 33342 dye. Cells were imaged on a Cytation 3 imaging reader (BioTek) and quantified using CellProfiler software. For in vitro short-term growth delay experiments, IC50 values were determined from the nonlinear regression equation, [inhibitor] vs normalized response with variable slope.

LN229 MGMT+ shMSH3 cells = assay: Short-term viability assay, LN229 MGMT+ shMSH3; format: cell-based; settings: Homo sapiens, LN-229, Table III, read-out: IC50 against LN229 cell lines, MGMT MMR−
Description: as §1
MMR Protein shRNA Knockdown. pGIPZ lentiviral shRNA vectors targeting MSH2, MSH6, MLH1, PMS2, and MSH3 were purchased from Horizon Discovery (Table IV). […]
Short-term Cell Viability Assay. […] Cells were imaged on a Cytation 3 imaging reader (BioTek) and quantified using CellProfiler software. For in vitro short-term growth delay experiments, IC50 values were determined from the nonlinear regression equation, [inhibitor] vs normalized response with variable slope.

Row | SMILES | tumor growth, MGMT−/MMR+ flank tumors [1] | IC50 (LN229 MGMT− shMSH6 cells) | MGMT− RI (LN229 MGMT− shMSH6 cells) | IC50 (LN229 MGMT+ shMSH3 cells)
1 | NC(=O)c1ncn2c(=O)n(CCF)nnc12 [KL-50] | statistically non-inferior to TMZ | 6.6 ± 0.4 µM | 0.5 | 328 ± 26 µM
2 | Cn1nnc2c(C(N)=O)ncn2c1=O [TMZ, 4-methyl-5-oxo-2,3,4,6,8-pentazabicyclo[4.3.0]nona-2,7,9-triene-9-carboxamide, reference compound] | suppressed tumor growth | 950 ± 68 µM | 186 | 649 ± 32 µM
